Results as given in PubChem BioAssay AID248 (DTP/NCI, 2004).
“And” between values parts separate entries of the source, which are not always exact repeats. Equal values may be shown once. Toxic doses and inconclusive results are not listed.

System: L1210 leukemia ip in BDF1 mice, survival T/C
Assay: NCI In Vivo Anticancer Drug Screen. Data for tumor model L1210 Leukemia (intraperitoneal) in B6D2F1 (BDF1) mice
Conditions: endpoint: mean survival time, higher = longer survival
Summary of the method: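 Transplantable tumor model; survival measured in treated vs vehicle control mice. Value = treated/control.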

[1] = dose: 100.0 mg/kg/injection, schedule: Q01DX009 (ip), vehicle: saline with Tween-80
[2] = dose: 200.0 mg/kg/injection, schedule: Q01DX009 (ip), vehicle: saline with Tween-80
[3] = dose: 400.0 mg/kg/injection, schedule: Q01DX009 (ip), vehicle: saline with Tween-80
[4] = dose: 50.0 mg/kg/injection, schedule: Q01DX009 (ip), vehicle: Klucel (hydroxypropylcellulose) (HPC)
[5] = dose: 100.0 mg/kg/injection, schedule: Q01DX009 (ip), vehicle: Klucel (hydroxypropylcellulose) (HPC)
[6] = dose: 100.0 mg/kg/injection, schedule: Q04DX003 (ip), vehicle: Klucel (hydroxypropylcellulose) (HPC)
[7] = dose: 200.0 mg/kg/injection, schedule: Q01DX009 (ip), vehicle: Klucel (hydroxypropylcellulose) (HPC)
[8] = dose: 200.0 mg/kg/injection, schedule: Q04DX003 (ip), vehicle: Klucel (hydroxypropylcellulose) (HPC)
[9] = dose: 400.0 mg/kg/injection, schedule: Q04DX003 (ip), vehicle: Klucel (hydroxypropylcellulose) (HPC)
[10] = dose: 200.0 mg/kg/injection, schedule: Q01DX001 (ip), vehicle: carboxymethylcellulose (CMC)
[11] = dose: 50.0 mg/kg/injection, schedule: Q01DX009 (ip), vehicle: saline with Tween-80
[12] = dose: 100.0 mg/kg/injection, schedule: Q04DX003 (ip), vehicle: saline
[13] = dose: 200.0 mg/kg/injection, schedule: Q04DX003 (ip), vehicle: saline
[14] = dose: 50.0 mg/kg/injection, schedule: Q04DX003 (ip), vehicle: Klucel (hydroxypropylcellulose) (HPC)
[15] = dose: 100.0 mg/kg/injection, schedule: Q01DX009 (ip), vehicle: saline
[16] = dose: 200.0 mg/kg/injection, schedule: Q01DX009 (ip), vehicle: saline
[17] = dose: 400.0 mg/kg/injection, schedule: Q04DX003 (ip), vehicle: saline
[18] = dose: 400.0 mg/kg/injection, schedule: Q01DX009 (ip), vehicle: saline

Question: With Nc1nnco1 as the compound, how does the T/C (dose: 222.0 mg/kg/injection, schedule: Q01DX Z (ip), vehicle: saline) read?
Answer: 97 % of control

Question: And the T/C (dose: 333.0 mg/kg/injection, schedule: Q01DX Z (ip), vehicle: saline)?
Answer: 108 % of control

Question: And the T/C (dose: 500.0 mg/kg/injection, schedule: Q01DX Z (ip), vehicle: saline)?
Answer: 97 % of control

Question: Which T/C (dose: 50.0 mg/kg/injection, schedule: Q01DX001 (ip), vehicle: Klucel (hydroxypropylcellulose) (HPC)) does the source give for CCOC(=O)c1[nH]c(-c2ccccc2)c(/C=N\O)c1-c1ccccc1 here?
Answer: 105 % of control

Question: What about the T/C (dose: 100.0 mg/kg/injection, schedule: Q01DX001 (ip), vehicle: Klucel (hydroxypropylcellulose) (HPC)) of the same compound?
Answer: 100 % of control

Question: What about the T/C (dose: 200.0 mg/kg/injection, schedule: Q01DX001 (ip), vehicle: Klucel (hydroxypropylcellulose) (HPC)) of the same compound?
Answer: 93 % of control

Question: Cc1cc2c(cc1C)C(=O)OC2=O was tested. Which T/C [1] did it give?
Answer: 102 % of control

Question: What about the T/C [2] of the same compound?
Answer: 98 % of control

Question: And the T/C [3]?
Answer: 100 % of control

Question: For OC1(C#CC2(O)CCCCC2)CCCCC1, which T/C [4] is on record?
Answer: 98 % of control

Question: And the T/C [5]?
Answer: 89 % of control

Question: What about the T/C [6] of the same compound?
Answer: 98 % of control

Question: And the T/C [7]?
Answer: 102 % of control

Question: What about the T/C [8] of the same compound?
Answer: 90 % of control

Question: Which T/C [5] does the source give for COc1ccc(-c2c(N)nc(=S)[nH]c2C(=O)O)cc1 here?
Answer: 97 % of control

Question: And the T/C [6]?
Answer: 100 % of control

Question: And the T/C [7]?
Answer: 94 % of control

Question: What about the T/C [8] of the same compound?
Answer: 101 % of control

Question: And the T/C (dose: 400.0 mg/kg/injection, schedule: Q01DX009 (ip), vehicle: Klucel (hydroxypropylcellulose) (HPC))?
Answer: 103 % of control

Question: What about the T/C [9] of the same compound?
Answer: 106 % of control

Question: NC1CONC1=O (centres undefined) was tested. Which T/C [1] did it give?
Answer: 101 % of control

Question: What about the T/C [2] of the same compound?
Answer: 98 % of control

Question: What about the T/C [3] of the same compound?
Answer: 98 % of control

Question: What does the source list for Nc1ncnc2c1ncn2C1OC(C(=O)O)C(O)C1O (centres undefined)?
Answer: T/C (dose: 100.0 mg/kg/injection, schedule: Q01DX005 (ip), vehicle: saline): 107 % of control; T/C (dose: 200.0 mg/kg/injection, schedule: Q01DX005 (ip), vehicle: saline): 101 % of control

Question: With C/C(=C\c1ccc(O)cc1)[N+](=O)[O-] as the compound, how does the T/C (dose: 50.0 mg/kg/injection, schedule: Q01DX009 (ip), vehicle: alcohol) read?
Answer: 104 % of control

Question: What about the T/C (dose: 100.0 mg/kg/injection, schedule: Q01DX009 (ip), vehicle: alcohol) of the same compound?
Answer: 105 % of control

Question: What about the T/C (dose: 100.0 mg/kg/injection, schedule: Q04DX003 (ip), vehicle: acetone) of the same compound?
Answer: 96 % of control

Question: And the T/C (dose: 200.0 mg/kg/injection, schedule: Q01DX009 (ip), vehicle: alcohol)?
Answer: 91 % of control

Question: And the T/C (dose: 200.0 mg/kg/injection, schedule: Q04DX003 (ip), vehicle: acetone)?
Answer: 105 % of control

Question: With Cc1cc2c(=S)nc(N)[nH]c2nc1C as the compound, how does the T/C (dose: 100.0 mg/kg/injection, schedule: Q01DX Z (ip), vehicle: methylcellulose (MC)) read?
Answer: 105 % of control

Question: And the T/C (dose: 200.0 mg/kg/injection, schedule: Q01DX Z (ip), vehicle: methylcellulose (MC))?
Answer: 103 % of control

Question: For CC(C#N)NCc1ccc2c(c1)OCO2 (centres undefined), which T/C (dose: 50.0 mg/kg/injection, schedule: Q01DX001 (ip), vehicle: carboxymethylcellulose (CMC)) is on record?
Answer: 112 % of control

Question: What about the T/C [10] of the same compound?
Answer: 96 % of control

Question: How did the T/C (dose: 75.0 mg/kg/injection, schedule: Q04DX003 (ip), vehicle: saline) turn out when CCCC(C)CC1CCCCC1=O (centres undefined) was run?
Answer: 97 % of control

Question: And the T/C (dose: 150.0 mg/kg/injection, schedule: Q04DX003 (ip), vehicle: saline)?
Answer: 96 % of control

Question: What about the T/C (dose: 300.0 mg/kg/injection, schedule: Q04DX003 (ip), vehicle: saline) of the same compound?
Answer: 103 % of control

Question: CCCCCCCCCCC(=O)CCC was tested. Which T/C [4] did it give?
Answer: 92 % of control

Question: What about the T/C [5] of the same compound?
Answer: 97 % of control

Question: And the T/C [6]?
Answer: 95 % of control and 98 % of control

Question: And the T/C [8]?
Answer: 90 % of control

Question: What about the T/C [9] of the same compound?
Answer: 95 % of control and 100 % of control

Question: Which results are given for CN(C)C(=O)c1cccc(NCc2ccc3nc(N)nc(N)c3c2)c1?
Answer: T/C [11]: 93 % of control; T/C [1]: 96 % of control and 88 % of control; T/C (dose: 100.0 mg/kg/injection, schedule: Q04DX003 (ip), vehicle: saline with Tween-80): 97 % of control; T/C [2]: 96 % of control; T/C (dose: 200.0 mg/kg/injection, schedule: Q04DX003 (ip), vehicle: saline with Tween-80): 92 % of control; T/C (dose: 400.0 mg/kg/injection, schedule: Q04DX003 (ip), vehicle: saline with Tween-80): 92 % of control

Question: For C[n+]1ccc(C(=O)c2ccccc2)cc1, which T/C (dose: 75.0 mg/kg/injection, schedule: Q01DX001 (ip), vehicle: saline) is on record?
Answer: 94 % of control

Question: What about the T/C (dose: 150.0 mg/kg/injection, schedule: Q01DX001 (ip), vehicle: saline) of the same compound?
Answer: 101 % of control

Question: For CN1C2CCCC1CC(=O)NC2 (centres undefined), which T/C (dose: 15.0 mg/kg/injection, schedule: Q01DX001 (ip), vehicle: saline) is on record?
Answer: 107 % of control

Question: And the T/C (dose: 15.0 mg/kg/injection, schedule: Q04DX002 (ip), vehicle: saline)?
Answer: 101 % of control

Question: What about the T/C (dose: 30.0 mg/kg/injection, schedule: Q01DX001 (ip), vehicle: saline) of the same compound?
Answer: 106 % of control

Question: And the T/C (dose: 30.0 mg/kg/injection, schedule: Q04DX002 (ip), vehicle: saline)?
Answer: 101 % of control

Question: And the T/C (dose: 60.0 mg/kg/injection, schedule: Q04DX002 (ip), vehicle: saline)?
Answer: 108 % of control

Question: With O=C(O)C1C[n+]2ccccc2O1 (centres undefined) as the compound, how does the T/C (dose: 50.0 mg/kg/injection, schedule: Q01DX009 (ip), vehicle: saline) read?
Answer: 116 % of control

Question: And the T/C [12]?
Answer: 97 % of control

Question: What about the T/C [13] of the same compound?
Answer: 103 % of control

Question: With CN(C)/N=C/C=C/c1ccccc1 as the compound, how does the T/C (dose: 25.0 mg/kg/injection, schedule: Q01DX009 (ip), vehicle: Klucel (hydroxypropylcellulose) (HPC)) read?
Answer: 98 % of control

Question: And the T/C [4]?
Answer: 102 % of control

Question: And the T/C [14]?
Answer: 100 % of control

Question: What about the T/C [5] of the same compound?
Answer: 88 % of control

Question: What about the T/C [15] of the same compound?
Answer: 105 % of control

Question: And the T/C [6]?
Answer: 99 % of control

Question: What about the T/C [12] of the same compound?
Answer: 98 % of control

Question: And the T/C [16]?
Answer: 100 % of control

Question: What about the T/C [8] of the same compound?
Answer: 97 % of control

Question: What about the T/C [13] of the same compound?
Answer: 97 % of control

Question: What about the T/C [17] of the same compound?
Answer: 102 % of control

Question: Which results are given for CCN=C(c1ccc(NC(=O)c2ccc(C(=O)Nc3ccc(C(=NCC)N(CC)C(=O)NCC(=O)OCC)cc3)cc2)cc1)N(CC)C(=O)NCC(=O)OCC?
Answer: T/C (dose: 3.12 mg/kg/injection, schedule: Q01DX015 (ip), vehicle: methylcellulose (MC)): 109 % of control; T/C (dose: 12.5 mg/kg/injection, schedule: Q01DX015 (ip), vehicle: methylcellulose (MC)): 155 % of control; T/C (dose: 25.0 mg/kg/injection, schedule: Q01DX015 (ip), vehicle: methylcellulose (MC)): 101 % of control

Question: With COC(=O)C1=C(C(=O)OC)C2(O)c3ccccc3C1c1ccccc12 as the compound, how does the T/C [15] read?
Answer: 100 % of control

Question: And the T/C [16]?
Answer: 93 % of control

Question: And the T/C [18]?
Answer: 88 % of control

Question: With CCCCC(=O)C(CCC)C(=O)Nc1ccccc1 (centres undefined) as the compound, how does the T/C [14] read?
Answer: 98 % of control

Question: And the T/C (dose: 100.0 mg/kg/injection, schedule: Q01DX001 (ip), vehicle: carboxymethylcellulose (CMC))?
Answer: 100 % of control

Question: What about the T/C [6] of the same compound?
Answer: 94 % of control and 98 % of control

Question: What about the T/C [10] of the same compound?
Answer: 91 % of control

Question: What about the T/C [8] of the same compound?
Answer: 96 % of control and 98 % of control

Question: What about the T/C (dose: 400.0 mg/kg/injection, schedule: Q01DX001 (ip), vehicle: carboxymethylcellulose (CMC)) of the same compound?
Answer: 91 % of control

Question: And the T/C [9]?
Answer: 98 % of control

Question: Which T/C (dose: 25.0 mg/kg/injection, schedule: Q01DX009 (ip), vehicle: saline with Tween-80) does the source give for O=C(C[n+]1ccccc1)N/N=C/c1ccc(Cl)cc1 here?
Answer: 98 % of control

Question: And the T/C [11]?
Answer: 96 % of control

Question: What about the T/C [1] of the same compound?
Answer: 100 % of control

Question: Cc1cc(S(=O)(=O)F)ccc1NC(=O)NCc1ccc(N2C(N)=NC(N)=NC2(C)C)cc1 was tested. Which T/C [6] did it give?
Answer: 108 % of control

Question: What about the T/C [8] of the same compound?
Answer: 100 % of control

Question: And the T/C [9]?
Answer: 106 % of control

Question: Which T/C [15] does the source give for CCOP(=O)(OCC)C(O)c1cnc(SC)nc1N (centres undefined) here?
Answer: 104 % of control

Question: What about the T/C [12] of the same compound?
Answer: 102 % of control

Question: What about the T/C [16] of the same compound?
Answer: 100 % of control

Question: What about the T/C [13] of the same compound?
Answer: 100 % of control

Question: And the T/C [18]?
Answer: 105 % of control

Question: What about the T/C [17] of the same compound?
Answer: 98 % of control
